{
  "source": "patent US20070225338A1",
  "about": "“Juvenile Hormone Analogs for Control of Leafhopper and Treehopper Pests” (priority 2004, published 2007)",
  "key": {"GWSS": {"tested_on": "GWSS", "conditions": "cited from earlier work; for efficacy against GWSS (CDFA nursery shipping protocol list): in vivo; for speed of activity against GWSS: tested over several weeks, Redak and Bethke"}, "[1]": {"tested_on": "Draeculacephala crassicornis", "conditions": "topical, substrate and vapor treatments; cited from earlier work"}, "[2]": {"tested_on": "egg parasitoids, Gonatocerus spp.", "assay": "Impact on egg parasitoids", "conditions": "non-target Gonatocerus spp."}, "[3]": {"tested_on": "Homalodisca coagulata (Say)", "assay": "Example 1: females in diapause sprayed with compound, oviposition and dissection of reproductive system", "format": "in vivo", "text": "(§1) As described in Examples 1 and 2, the inventors topically applied methoprene in an aqueous solution to GWSS females that were: 1) over-wintering in reproductive diapause or 2) females that were newly eclosed adults and not yet reproductively active. […] Untreated females ordinarily will begin reproductive cycles 10-12 days post eclosion.\nTen female Homalodisca coagulata (Say) were sprayed until visibly wet with the candidate compound. They were then placed into a wooden 1 m screened cage that was provisioned with five males and glabrous soybean, Glycine max (L.) A similar untreated control cage was also set up with females sprayed with distilled water. All leafhoppers were taken from a greenhouse culture and were in the process of terminating winter reproductive diapause. Females were checked daily for the presence of brochosomes and plants were checked for egg masses. Cages were in a greenhouse maintained at 32° C. and equipped with artificial lighting for a 14:10 photoperiod. Surviving females were dissected after thirty days and their reproductive status was evaluated."}, "H. coagulata": {"tested_on": "H. coagulata", "assay": "Example 2: newly-eclosed adult females treated with compound, dissection after 36 days", "format": "in vivo, Homalodisca coagulata", "procedure": "as §1\nSeven newly eclosed adult female H. coagulata were treated with the compound. The solution was applied with an aerosol device until individuals were noticeable wet. After treatment, female were placed into a wooden 1 m-screened cage that was provisioned with crape myrtle, eastern saltbush, and soybean. Five males of unknown ages were added to the cage. Female were dissected after 36 days. Males were discarded."}, "GWSS females": {"tested_on": "GWSS females", "assay": "Treatment of reproductively-active females", "format": "in vivo, Homalodisca coagulata", "conditions": "following weeks of evaluation"}, "[4]": {"tested_on": "Homalodisca coagulata females", "assay": "Example 4: mortality of JH analog-treated field-collected gravid females", "format": "in vivo", "conditions": "10 days post-treatment, fifteen females per treatment", "procedure": "The treatment rates for all three: methoprene, kinoprene, and hydroprene are listed below.\nThis example summarizes two ongoing tests involving field-collected gravid females and eggs oviposited less than 24 hours prior to treatment. […] After eclosion the neonates will be held on host plants until death or successful development to the second instar, which ever occurs first.\nFifteen females were used for each treatment. […] The females will be dissected to determine if there are sub-lethal effects of the JH analogs on the reproductive system."}, "GWSS nymphs": {"tested_on": "GWSS nymphs", "assay": "Treatment of GWSS nymphs", "format": "in vivo, Homalodisca coagulata"}, "[5]": {"conditions": "treated diapausing females, one value per surviving female, dissected after thirty days"}, "[6]": {"conditions": "newly eclosed adult females, one value per female, 36 days post-treatment"}, "[7]": {"conditions": "treatment A: 1/100 of recommended dose"}, "[8]": {"conditions": "treatment B: 1/10 of recommended dose"}, "[9]": {"conditions": "treatment D: 10× recommended dose"}},
  "note": "“And” between values parts separate entries of the source, which are not always exact repeats. Equal values may be shown once.",
  "data": [
    {"smiles": "COP(=O)(NC(C)=O)SC", "note": "(stereo not shown) [acephate]", "values": [
      {"measurement": "efficacy against GWSS (CDFA nursery shipping protocol list)", "setting": "GWSS", "value": "some efficacy"}
    ]},
    {"smiles": "Cc1c(COC(=O)[C@@H]2[C@H](/C=C(\\Cl)C(F)(F)F)C2(C)C)cccc1-c1ccccc1", "note": "(racemic) [bifenthrin]", "values": [
      {"measurement": "efficacy against GWSS (CDFA nursery shipping protocol list)", "setting": "GWSS", "value": "some efficacy"}
    ]},
    {"smiles": "COC(=O)C=C(C)CCC=C(C)CCC1OC1(C)C", "note": "(stereo not shown) [Juvenile hormone III]", "values": [
      {"measurement": "effect on diapause", "setting": "[1]", "value": "terminated diapause"}
    ]},
    {"smiles": "CC(C)N1C(=O)N(c2ccccc2)CS/C1=N\\C(C)(C)C", "note": "[buprofizen]", "values": [
      {"measurement": "speed of activity against GWSS", "setting": "GWSS", "value": "too slow to be useful for eradication purposes"}
    ]},
    {"smiles": "CC1(C)C(C=C(Cl)Cl)C1C(=O)OC(C#N)c1ccc(F)c(Oc2ccccc2)c1", "note": "(stereo not shown) [cyfluthrin]", "values": [
      {"measurement": "efficacy against GWSS (CDFA nursery shipping protocol list)", "setting": "GWSS", "value": "some efficacy"}
    ]},
    {"smiles": "CC1(C)C(C(=O)OC(C#N)c2cccc(Oc3ccccc3)c2)C1(C)C", "note": "(stereo not shown) [fenpropathrin]", "values": [
      {"measurement": "efficacy against GWSS (CDFA nursery shipping protocol list)", "setting": "GWSS", "value": "some efficacy"}
    ]},
    {"smiles": "COC(C)(C)CCC[C@H](C)C/C=C/C(C)=C/C(=O)OC(C)C", "note": "[methoprene, isopropyl (2E,4E)-11-methoxy-3,7,11-trimethyl-2-2,4-dodecadienoate]", "values": [
      {"measurement": "impact on egg parasitoids", "setting": "[2]", "value": "no impact"},
      {"measurement": "reproductive activity of surviving treated females on dissection", "setting": "[3]; after 30 days", "value": "had not begun reproductive activity"},
      {"measurement": "eggs produced by treated females", "setting": "[3]; diapausing females, 30 days", "value": "No eggs were produced"},
      {"measurement": "time treated females remained reproductively inactive", "setting": "[3]; diapausing females, topical aqueous solution, summer conditions (32° C., 14:10 L:D), untreated controls oviposit after 10 days", "value": "at least 30 days"},
      {"measurement": "Brochosomes (within Malpigian tubules)", "setting": "[3]; [5]", "value": 1},
      {"measurement": "Fat body", "setting": "[3]; [5]", "value": 2},
      {"measurement": "Ova", "setting": "[3]; [5]", "value": 1},
      {"measurement": "Ovarioles", "setting": "[3]; treated diapausing females, one value per surviving female, dissected after thirty days, 32° C., 14:10 photoperiod", "value": 2},
      {"measurement": "time without egg production post-treatment", "setting": "H. coagulata; 36 days was the maximum time tested", "value": "at least 36 days"},
      {"measurement": "accumulated fat body in treated females", "setting": "H. coagulata; dissection of adult females", "value": "high amount of accumulated fat body"},
      {"measurement": "effect on development of brochosomes and ovarioles", "setting": "H. coagulata; dissection of reproductive system of adult females", "value": "inhibits the development of both brochosomes and ovarioles"},
      {"measurement": "Brochosomes", "setting": "H. coagulata; [6]", "value": "1 and 1.5"},
      {"measurement": "Fat body", "setting": "H. coagulata; [6]", "value": "2.5 and 1.5 and 2"},
      {"measurement": "Ova", "setting": "H. coagulata; [6]", "value": 1},
      {"measurement": "Ovarioles", "setting": "H. coagulata; [6]", "value": 2},
      {"measurement": "eggs produced by treated females", "setting": "H. coagulata; newly eclosed females, 36 days", "value": "no eggs were produced"},
      {"measurement": "ovariole (reproductive) development on dissection", "setting": "H. coagulata; newly eclosed females, 36 days", "value": "inhibited"},
      {"measurement": "egg development and oviposition after treatment", "setting": "H. coagulata; newly eclosed females, after 36 days of summer conditions, untreated begin 10-12 days post eclosion", "value": "did not develop eggs or oviposit"},
      {"measurement": "oviposition of treated reproductively-active females", "setting": "GWSS females", "value": "oviposited the eggs they contained then stopped"},
      {"measurement": "number of dead female Homalodisca coagulata", "setting": "[4]; [7]", "value": 0},
      {"measurement": "number of dead female Homalodisca coagulata", "setting": "[4]; [8]", "value": 0},
      {"measurement": "number of dead female Homalodisca coagulata", "setting": "[4]; treatment C: recommended dose", "value": 0},
      {"measurement": "number of dead female Homalodisca coagulata", "setting": "[4]; [9]", "value": 0},
      {"measurement": "effect of treating nymphs (mortality, time of development, morphology)", "setting": "GWSS nymphs", "value": "did not cause mortality, increase or decrease time of development, or induce morphological aberrations"}
    ]},
    {"smiles": "O=C(NC(=O)c1c(F)cccc1F)Nc1ccc(OC(F)(F)C(F)OC(F)(F)F)c(Cl)c1", "note": "(stereo not shown) [novaluron]", "values": [
      {"measurement": "speed of activity against GWSS", "setting": "GWSS", "value": "too slow to be useful for eradication purposes"}
    ]},
    {"smiles": "O=[N+]([O-])NC1=NCCN1Cc1ccc(Cl)nc1", "note": "[imidaclopid]", "values": [
      {"measurement": "efficacy against GWSS (CDFA nursery shipping protocol list)", "setting": "GWSS", "value": "some efficacy"}
    ]},
    {"smiles": "CC(COc1ccc(Oc2ccccc2)cc1)Oc1ccccn1", "note": "(racemic) [pyriproxifen, 4-phenoxyphenyl (RS)-2-(2-pyridyloxy)propyl ether]", "values": [
      {"measurement": "speed of activity against GWSS", "setting": "GWSS", "value": "too slow to be useful for eradication purposes"}
    ]},
    {"smiles": "CCOC(=O)/C=C(C)/C=C/CC(C)CCCC(C)C", "note": "(stereo not shown) [hydroprene, ethyl (2E,4E)-3,7,11-trimethyl-2,4-dodecadienoate]", "values": [
      {"measurement": "number of dead female Homalodisca coagulata", "setting": "[4]; [7]", "value": 3},
      {"measurement": "number of dead female Homalodisca coagulata", "setting": "[4]; [8]", "value": 0},
      {"measurement": "number of dead female Homalodisca coagulata", "setting": "[4]; treatment C: recommended dose", "value": 0},
      {"measurement": "number of dead female Homalodisca coagulata", "setting": "[4]; [9]", "value": 14}
    ]},
    {"smiles": "CCOP(=S)(OCC)Oc1nc(Cl)c(Cl)cc1Cl", "note": "[chlorpyrifos]", "values": [
      {"measurement": "efficacy against GWSS (CDFA nursery shipping protocol list)", "setting": "GWSS", "value": "some efficacy"}
    ]},
    {"smiles": "CC1(C)[C@H](C(=O)O[C@H](C#N)c2cccc(Oc3ccccc3)c2)[C@@H]1C=C(Br)Br", "note": "[deltamethrin]", "values": [
      {"measurement": "efficacy against GWSS (CDFA nursery shipping protocol list)", "setting": "GWSS", "value": "some efficacy"}
    ]},
    {"smiles": "CNC(=O)Oc1cccc2ccccc12", "note": "[carbaryl]", "values": [
      {"measurement": "efficacy against GWSS (CDFA nursery shipping protocol list)", "setting": "GWSS", "value": "some efficacy"}
    ]},
    {"smiles": "CC1(C)C(C=C(Cl)Cl)C1C(=O)OCc1cccc(Oc2ccccc2)c1", "note": "(stereo not shown) [permethrin]", "values": [
      {"measurement": "efficacy against GWSS (CDFA nursery shipping protocol list)", "setting": "GWSS", "value": "some efficacy"}
    ]},
    {"smiles": "C#CCOC(=O)/C=C(C)/C=C/CC(C)CCCC(C)C", "note": "[kinoprene, 2-propynl (2E,4E)-(7S)-3,7,11-trimethyl-2,4-dodecadienoate]", "values": [
      {"measurement": "number of dead female Homalodisca coagulata", "setting": "[4]; [7]", "value": 1},
      {"measurement": "number of dead female Homalodisca coagulata", "setting": "[4]; [8]", "value": 1},
      {"measurement": "number of dead female Homalodisca coagulata", "setting": "[4]; treatment C: recommended dose", "value": 0},
      {"measurement": "number of dead female Homalodisca coagulata", "setting": "[4]; [9]", "value": 0}
    ]},
    {"smiles": "CNC(=O)Oc1cc(C)c(SC)c(C)c1", "note": "[methiocarb]", "values": [
      {"measurement": "efficacy against GWSS (CDFA nursery shipping protocol list)", "setting": "GWSS", "value": "some efficacy"}
    ]}
  ]
}
